Assay results: the NIST ThermoML archive (doi:10.1016/j.jct.2012.05.002)
± gives the expanded uncertainty stated by the source.

Experiment: Boiling temperature at pressure P
Settings: 101.3 kPa; Liquid; Closed cell (Static) method

Boiling temperature at pressure P [°C] | SMILES
64.69 ± 0.11 | COC(=O)OC [dimethyl carbonate]
90.26 ± 0.11 | CO [methanol]
